# Where two headings read alike, the source gives them in different places.
# Experiments:
# [1] = target: HSV1-TK (Human alphaherpesvirus 1 strain 17, UniProt P0DTH5); experiment: Accumulation of radiolabelled marker substrates in RG2TK+ transduced and RG2 wild-type cells, normalized to TdR; assay type: cell-based, herpes simplex virus
# Experimental: Source of radiolabelled "marker substrates". […] No carrier-added 5-[^123 I]-deoxyuridine (IUdR) was prepared by reacting 2-deoxyuridine (UdR) with carrier-free ^123 I-labelled sodium iodide in an iodogen coated reaction vial.
# Comparison of "marker substrates" for identifying HSV1-tk gene expression in tissue culture. […] Each of these substrates were developed for or used as an anti-viral agent; they are phosphorylated by HSV1-TK and can be radiolabelled for noninvasive imaging.
# Wild-type (nontransduced) RG2 cells were studied as a reference control. […] The cells were dislodged from the Petri dishes with a soft scraper, poured into 15 ml conical tubes, centrifuged and the medium aspirated. The tubes were cut to facilitate removing cells; they were blotted, placed in pre-weighed vials, weighed and prepared for counting. Samples were assayed for ^3 H- and ^14 C-radioactivity using a Packard B1600 TriCarb beta spectrometer using dual-channel and external standard splash and quench correction techniques. The medium was also counted before and following incubation. The data was expressed as a harvested cell-to-medium concentration ratio (dpm/g cells.div.dpm/ml medium).
# Data analysis. […] These two related measures are useful to evaluate the intensity of the images (e.g., high "sensitivity") and the ability to differentiate between HSV1-TK and endogenous-TK in the images (e.g., high "selectivity"). The "selectivity" measure is not interpreted as a relative sensitivity (i.e., a value of 1 indicating equal sensitivity) of the substrate to HSV1-TK vs. endogenous-TK. […] They are intended for the direct comparison of substrates only.
# [2] = cited from earlier work
# [3] = system: RG2TK+ and RG2 tumors; experiment: Tissue sampling of FIAU- and IUdR-derived radioactivity in i.c. and s.c. RG2TK+ and RG2 tumors; assay type: in vivo, rat; conditions: 24 h, percent dose per gram
# Experimental: Animal preparation and tumor inoculation Two male Fisher 344 rats weighing 250±20 g were anesthetized with a gas mixture consisting of 2% Isoflurane, 70% nitrous oxide and 30% oxygen. A 2% lidocaine gel was applied to the ears and the head was fixed with a stereotaxic device. After midline scalp incision, a burr hole was made through the skull 1 mm posterior and 3 mm lateral to the bregma. The tumor cell suspensions were aspirated into a 50 μl gas tight Hamilton syringe (Ga. 25) and attached to a stereotaxic device. The syringe needle was then inserted 6 mm deep into the caudate nucleus and the cell suspension (10^5 cells in 10 μl) was slowly injected over 2 minutes. RG2TK+ cells were injected into the left hemisphere, and RG2 cells were injected into the right hemisphere. Bone wax was applied to cover the skull defect and the scalp was closed with 4.0 silk suture. Subcutaneous inoculations (10^6 cells in 50 μl) were also performed (RG2TK+ cells into the left flank and RG2 cells into the right flank). After the procedure, the animals were marked and placed in standard cages with water and Rodent LabChow #5001 (Purina Mills, Inc.) ad libitum. Comparison of different "marker substrates" for identifying HSV1-TK expression in animals After 10 days of tumor growth, both animals received i.v. injections of [^123 I]-IUdR (400 uCi) and [^14 C]-FIAU (10 uCi). Radioactivity was allowed to clear from the body over 24 hours to reduce tissue background activity, predominantly due to radiolabelled iodide, the major metabolite of [^123 I]-IUdR. [Tjuvajev, J. G., Muraki, A., Ginos, J., Berk, J., Koutcher, J., Ballon, D., Beattie, B., Finn, R., and Biasberg, R., J. Nucl. Med., 34: 1152-62, 1993; Tjuvajev, J. G., Macapinlac, H. A., Daghighian, F., Scott, A. M., ginos, J. Z., Finn, R. D., Kothari, P., Desai, R., Zhang, Z., Beattie, B., Graham, M., Larson, S., and Blasberg, R. G., J. Nucl. Med., 35: 1407-17, 1994] The rats were killed at 24 hours under anesthesia; samples of tumor and adjacent tissue were disected and weighed, blood and plasma were obtained, and radioactivity was measured. Decay corrected ^123 I-radioactivity was assayed in a Packard AutoGamma 5550 Spectrometer; samples were stored in a refrigerator for 1 week to allow for ^123 I decay (>12 half lives) and ^14 C-radioactivity was measured in a Packard B1600 TriCarb beta spectrometer using external standard quench correction. Sample radioactivity was expressed as a percent of administered dose per gram of tissue of per unit volume of fluid.
# [4] = Quantitative autoradiography of 2-[14C]-FIAU after in vivo transfection of RG2 tumors by the STK retrovirus; design: species or system rat; conditions: rat, iv, 50 uCi
# Experimental: (§1) Imaging in vivo transfection of RG2 tumors by the STK retrovirus in experimental animals. […] The left hemisphere was inoculated with gp-STK-A2 vector-producer cells only. Ten days after inoculation, animals were injected i.v. with 50 uCi of 2-[^14 C]-FIAU, killed 24 hours later and the brain was processed for QAR and histology. The HSV1-tk transfected tumor was well visualized on the autoradiographic image (FIG. 11B). […] Surrounding normal brain and the area inoculated only with gp-STK-A2 vector-producer cells are poorly or not at all visualized. […] Quantitative analysis yielded mean activities of 0.34±0.24% dose/g for the in vivo transduced RG2(TK+) and 0.028±0.023% dose/g for the gp-STK-A2 vector-producer cell inoculated area prior to rinsing.
# [5] = system: in vivo transduced RG2(TK+) tumor; experiment: as above; design: species or system rat; conditions: 24 h
# Experimental: as §1
# Chain of HSV1-TK (P0DTH5 whole entry): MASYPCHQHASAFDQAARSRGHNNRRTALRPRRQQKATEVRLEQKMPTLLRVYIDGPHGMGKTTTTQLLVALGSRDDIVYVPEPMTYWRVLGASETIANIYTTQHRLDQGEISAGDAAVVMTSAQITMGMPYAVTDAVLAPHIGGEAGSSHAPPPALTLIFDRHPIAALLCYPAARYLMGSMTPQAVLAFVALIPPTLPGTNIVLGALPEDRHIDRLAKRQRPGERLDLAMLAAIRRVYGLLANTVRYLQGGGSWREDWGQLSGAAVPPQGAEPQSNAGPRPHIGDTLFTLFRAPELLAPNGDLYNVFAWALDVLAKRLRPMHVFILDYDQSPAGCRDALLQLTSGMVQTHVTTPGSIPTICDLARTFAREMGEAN
structure (smiles),measurement,setting,value
"O=c1[nH]c(=O)n([C@@H]2O[C@H](CO)[C@@H](O)[C@@H]2F)cc1I [FIAU, 2'-fluoro-5-iodo-1-β-D-arabinofuranosyl-uracil]",Sensitivity* Δ(substrate/TdR)/Δ(HSV1TK mRNA/S28 RNA IOD),[1]; Data from FIG. 5,0.0090
same,Sensitivity* Δ(substrate/TdR)/Δ(HSV1TK mRNA/S28 RNA IOD),[1]; Data from FIG. 7B (different RG2TK cell lines),0.0086
same,organ damage in clinical trial,"[2]; human, in vivo",severe liver and pancreatic damage
same,dose-limiting toxicity,[2]; pharmacologic doses,"dose-limiting gastrointestinal, hematologic and neurotoxicity"
same,Sensitivity* (uptake in RG2TK+ tumor - uptake in RG2 tumor)/(HSV1TK mRNA/S28 RNA IOD in RG2TK+ cells),[3]; RG2TK+/RG2 i.c. tumors,0.0025
same,Sensitivity* (uptake in RG2TK+ tumor - uptake in RG2 tumor)/(HSV1TK mRNA/S28 RNA IOD in RG2TK+ cells),[3]; RG2TK+/RG2 s.c. tumors,0.0150
same,tissue uptake at 24 h,"[4]; gp-STK-A2 vector-producer cell inoculated area, prior to rinsing, read-out: mean activity",0.028 ± 0.023 %ID/g
same,tissue uptake at 24 h,"[4]; in vivo transduced RG2(TK+) tumor, prior to rinsing, read-out: mean activity",0.34 ± 0.24 %ID/g
same,tissue uptake at 24 h,"[4]; in vivo transduced RG2(TK+) tumor, read-out: peak activity",0.96 %ID/g
same,adjacent brain activity,[5]; level of detection on the autoradiograms,below the level of detection
same,peak activity,[5]; in vivo transduced RG2(TK+) tumor,0.96 % dose/g

# — US5703056A, “Non-invasive imaging of gene transfer” (priority 1995, dated 1997)
